Assay results from US7838543B2, “MCH receptor antagonists” (Eli Lilly and Company, priority 2005, dated 2010).
pKi: −log10 of the molar value. Like-named read-outs stand apart in the source and are kept apart here.

Columns and labels:
[1] = biological target: T1, human MCHR1 (Homo sapiens, UniProt Q99705); assay: 125I-MCH competitive binding assay with clone 43 membranes; conditions: Ki from IC50 by Cheng-Prusoff; for pKi: read-out: Average MCHR1 Ki
T1 construct: The full-length cDNA for human MCHR1 was cloned from a human adult brain cDNA library; expressed in transfected cells; host or cells: AV12 cells previously transfected with Galpha15
T1 sequence (Q99705 whole entry): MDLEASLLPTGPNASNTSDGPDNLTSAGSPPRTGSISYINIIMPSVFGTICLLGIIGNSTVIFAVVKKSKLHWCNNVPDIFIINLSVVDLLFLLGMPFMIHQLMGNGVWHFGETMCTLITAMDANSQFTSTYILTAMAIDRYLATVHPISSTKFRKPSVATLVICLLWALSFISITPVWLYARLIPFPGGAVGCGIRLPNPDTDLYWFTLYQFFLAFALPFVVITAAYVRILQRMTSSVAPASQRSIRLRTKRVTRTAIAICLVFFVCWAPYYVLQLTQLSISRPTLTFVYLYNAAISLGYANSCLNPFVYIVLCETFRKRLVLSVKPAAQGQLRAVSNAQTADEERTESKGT
Method: The full-length cDNA for human MCHR1 was cloned from a human adult brain cDNA library (Edge Biosystems, Cat. 38356) by standard polymerase chain reaction (PCR) methodology employing the following primers: sense, 5′-GCCACCATGGACCT GGAAGCCTCGCTGC-3′; anti-sense, 5′-[…]-3′. The PCR reaction was performed in a final volume of 50 μl containing 5 μl of a 10× stock solution of PCR buffer, 1 μl of 10 mM dNTP mixture (200 μM final), 2 μl of 50 mM Mg(SO4) (2 mM final), 0.5 μl of 20 μM solutions of each primer (0.2 μM final), 5 μl of template cDNA containing 0.5 ng DNA, 0.5 μl of Platinum Taq High Fidelity DNA polymerase (Gibco Life Technologies) and […] of H2O. PCR amplification was performed on a Perkin Elmer 9600 thermocycler. After denaturation for 90 sec at 94° C., the amplification sequence consisting of 94° C. for 25 sec, 55° C. for 25 sec and 72° C. for 2 min was repeated 30 times, followed by a final elongation step at 72° C. for 10 min. The desired PCR product (1.1 Kb) was confirmed by agarose gel electrophoresis and the band was extracted from the gel by Geneclean (Bio101) following the manufacturer's instructions. Following extraction, the cDNA fragment was cloned into pCR2.1-TOPO plasmid (Invitrogen Corp) to confirm the identity and sequence.
In order to generate cell lines stably expressing MCHR1, the insert was then subcloned into the Xba I and Not I sites of pcDNA(+)-3.1-neomycin (Invitrogen). After purification by Qiagen Maxi-prep kit (QIAGEN, Inc.), the plasmid was transfected by Fugene 6 (Roche Applied Science) into AV12 cells that had been previously transfected with the promiscuous G protein Gα15. The transfected cells were selected by G418 (800 μg/ml) for 10-14 days and single colonies were isolated from culture plates. The G418-resistant colonies were further selected for MCHR1 expression by measuring MCH-stimulated Ca^2+ transients with a fluorometric imaging plate reader (FLIPR, Molecular Devices).
Both the ^125I-MCH binding and functional GTPγ^35S binding assays employed membranes isolated from a clone designated as clone 43. Typically, cells from 20 confluent T225 flasks were processed by washing the monolayers in cold phosphate-buffered saline (PBS), scraping the cells into same and re-suspending the cell pellet in 35 ml of 250 mM Sucrose, 50 mM HEPES, pH 7.5, 1 mM MgCl2, 24 μg/ml DNase I, and protease inhibitors (1 Complete® tablet, per 50 ml of buffer prepared, Roche Diagnostics). […]
Binding of compounds to MCHR1 was assessed in a competitive binding assay employing ^125I-MCH, compound and clone 43 membranes. […] Non-specific binding is assessed in the presence of 0.1 μM unlabeled MCH. Bound ^125I-MCH is determined by placing sealed plates in a Microbeta Trilux (Perkin Elmer Life and Analytical Sciences Inc) and counting after a 12 hr delay. […]

[2] = test system: diet-induced obese male Long-Evans rats; assay: 3 day body weight change in diet-induced obese rats after oral dosing; assay type: in vivo, rat; conditions: 10 mg/kg oral once a day for 3 days, 3 day cumulative, relative to vehicle control
Method: Vehicle consisted of 1% CMC and 0.25% PS-80 in water.
Animals were individually housed in a temperature regulated room (24° C.) with a reverse 12 hour light/dark cycle (dark 10:00/22:00). Water and food (Teklad 95217, Harlan, Wis.) were available ad libitum. Compounds were dosed orally once a day before onset of dark for 3 days. Daily food intake and body weight change were measured for the 3 day period.

pKi [1] | Structure (SMILES) | Body weight reduction @ 10 mg/Kg versus vehicle control. Data expressed in grams. [2] | Ki ([1]; Average MCHR1 Ki (nM))
8.06 | CN1CCC(CN(C)c2nc3cc(NC(=O)c4ccc(-c5ccc(F)cc5)cc4)ccc3o2)C1 (single isomer, unassigned) [Example 34, 4′-Fluoro-biphenyl-4-carboxylic acid {2-[methyl-(1-methyl-pyrrolidin-3-ylmethyl)-amino]-benzooxazol-5-yl}-amide] | 5.8 grams | –
7.78 | CN1CCC(N(C)c2nc3ccc(NC(=O)c4ccc(-c5ccc(F)cc5)cc4)cc3s2)C1 (single isomer, unassigned) [Example 106, 4′-Fluoro-biphenyl-4-carboxylic Acid {2-[methyl-(1-methyl-pyrrolidin-3-yl)-amino]-benzothiazol-6-yl}-amide] | 8.4 grams | –
7.82 | CN1CCC(N(C)c2nc3ccc(NC(=O)c4ccc(-c5ccc(F)cc5)cc4)cc3s2)C1 (single isomer, unassigned) [Example 107, 4′-Fluoro-biphenyl-4-carboxylic Acid {2-[methyl-(1-methyl-pyrrolidin-3-yl)-amino]-benzothiazol-6-yl}-amide] | 7.1 grams | –
– | CN1CCC(N(C)c2nc3cc(NC(=O)c4ccc(-c5ccc(F)cc5Cl)cc4)ccc3o2)CC1.Cl [Example 157, 2′-Chloro-4′-fluoro-biphenyl-4-carboxylic acid {2-[methyl-(1-methyl-piperidinyl)-amino]-benzooxazol-5-yl}-amide Hydrochloride] | 18 grams | 7.5 nM
